Source: patent US20070275932A1, “Aryl, heteroaromatic and bicyclic aryl nitrone compounds, prodrugs and pharmaceutical compositions of the same to treat human disorders” (Renovis, Inc., priority 2003, published 2007)

test: Free radical-scavenging/antioxidant assay (DPPH); assay type: biochemical; settings: 50 μM DPPH in 80% methanol, absorbance at 520 nm, 24 h time point (steady state); read-out: EC50 (concentration at which a compound reduces by 50% the peak absorbance of DPPH at 520 nm)
Protocol: Nitrone compounds of the present invention were tested for their free-radical scavenging/antioxidant activity in an in vitro assay that is accepted by those skilled in the art as a model for conditions involving the generation of free radicals. The assay is based on a reaction between a free-radical donor, 2,2-diphenyl-1-picrylhydrazyl (DPPH), and a radical scavenger/antioxidant to be tested for free-radical scavenging activity. Upon donation of the free-radical electron to the purported radical scavenger, the peak visible absorbance of DPPH (515-520 nm) decreases so that optical density readings at this part of the visual spectrum reflect the progression of the following reaction: DPPH∩+AH→DPPH-H+A∩ where AH is a hypothetical radical scavenger/antioxidant. The assay is based on a protocol originally detailed in Brand-Williams, W. et al., 1995, Use of a Free Radical Method to Evaluate Antioxidant Activity, Lebensm. Wiss. Technol., 28:25-30, with further modifications described in L. R. Fukumoto and G. Mazza, 2000, Assessing Antioxidant and Prooxidant Activities of Phenolic Compounds, J. Agric. Food Chem., 48:3597-3604.
The antioxidant assay was performed using Perkin-Elmer 96-well, clear-bottom, black-wall plates (ordered from E & K Scientific Products) and a Tecan Safire absorbance plate reader. The positive controls were Trolox (6-hydroxy-2,5,7,8-tetramethylchromane-2-carboxylic acid, Sigma-Aldrich), BHA (2(3)-tert-butylhydroquinone monomethyl ether, Sigma-Aldrich), PBN (C-(phenyl)-N-(tert-butyl)nitrone, Sigma-Aldrich) and S-PBN (C-(2-sulfophenyl)-N-(tert-butyl)nitrone, sodium salt, prepared according to E. G. Janzen and R. V. Shetty, 1979, Tetrahedron Lett., 35: 3229-32), and the negative control (i.e., vehicle) was DMSO. In brief, 2 μL of 100×DMSO stock of the desired final concentration of each control or nitrone compound to be tested in the same batch was added to a separate well. To each well was then added 198 μL of a freshly made 50 μM DPPH (Sigma-Aldrich) solution in 80% methanol using a multi-channel pipette. The absorbance was immediately read on the plate reader at 520 nm and thereafter read periodically to assess kinetics until all reactions reached completion (i.e., steady state). Since the steady-state point was 24 h, the assay results are shown from the 24 h time point. The absorbance at 520 nm (OD) was plotted versus the concentrations of the controls and nitrone compounds to assess dose-response and interpolate the EC50 values of the controls and test compounds.

Compared with `COC(=O)c1ccccc1/C=[N+](\[O-])C(C)(C)C` [Example 1, N-(tert-Butyl)-C-[2-(methoxycarbonyl)phenyl]nitrone], `COc1cc(/C=[N+](\[O-])C2CCCCC2)c(C(=O)O)c(OC)c1` [Example 11, N-Cyclohexyl-C-(2-carboxy-3,5-dimethoxyphenyl)nitrone] is lower in EC50: 500 to 1000 µM for the first, 10 to 100 µM for the second.

`O=C(O)c1ccsc1/C=[N+](\[O-])C1CCCCC1` [Example 42, N-Cyclohexyl-C-(3-carboxythiophen-2-yl]nitrone] and `CC(C)(C)/[N+]([O-])=C/c1ccccc1N1CCN(c2ccc(C(F)(F)F)cn2)CC1` [Example 23, N-(tert-Butyl)-C-{2-[4-(5-(trifluoromethyl)pyridin-2-yl)piperazin-1-yl]phenyl}nitrone] fall in the same range of EC50: 100 to 500 µM for the first, 100 to 500 µM for the second.

First: COC(=O)c1[nH]c2ccccc2c1/C=[N+](\[O-])C1CCCCC1 [Example 39, N-Cyclohexyl-C-[2-(methoxycarbonyl)-1H-indol-3-yl]nitrone]
Second: CC(C)(C)/[N+]([O-])=C/c1sccc1C(=O)O [Example 41, N-(tert-Butyl)-C-(3-carboxythiophen-2-yl)nitrone]
The EC50 of the first is higher: over 1000 µM for the first, 10 to 100 µM for the second.

First: COC(=O)c1[nH]c2ccccc2c1/C=[N+](\[O-])Cc1ccccc1 [Example 40, N-Benzyl-C-[2-(methoxycarbonyl)-1H-indol-3-yl]nitrone]
Second: CC(C)(C)/[N+]([O-])=C/c1cc([N+](=O)[O-])ccc1Sc1ccccn1 [Example 36, N-(tert-Butyl)-C-[5-nitro-2-(pyridin-2-ylthio)phenyl]nitrone]
The EC50 of the first is higher: over 1000 µM for the first, 100 to 500 µM for the second.

Compared with “2(3)-tert-butylhydroquinone monomethyl ether [BHA, reference compound]”, `[O-]/[N+](=C\c1ccccc1Sc1ccc(Cl)cc1)Cc1ccccc1` [Example 28, N-Benzyl-C-[2-(4-chlorophenylthio)phenyl]nitrone] is higher in EC50: under 10 µM for the first, 100 to 500 µM for the second.

Compared with `Cc1c(C)c2c(c(C)c1O)CCC(C)(C(=O)O)O2` (centres unmarked) [Trolox, 6-hydroxy-2,5,7,8-tetramethylchromane-2-carboxylic acid, reference compound], `Cc1ccc(Sc2ncccc2/C=[N+](\[O-])C(C)(C)C)cc1` [Example 43, N-(tert-Butyl)-C-[2-(4-methylphenylthio)pyridin-3-yl]nitrone] is higher in EC50: under 10 µM for the first, over 1000 µM for the second. The first is the more potent here.

First: CSc1ccc(/C=[N+](\[O-])C(C)(C)C)c(SC)c1 [Example 32, N-(tert-Butyl)-C-[2,4-bis(methylthio)phenyl]nitrone]
Second: COC(=O)c1ccccc1/C=[N+](\[O-])Cc1ccccc1 [Example 3, N-Benzyl-C-[2-(methoxycarbonyl)phenyl]nitrone]
The EC50 of the first is higher: over 1000 µM for the first, 500 to 1000 µM for the second. The second is the more potent here.

`COC(=O)c1[nH]c2ccccc2c1/C=[N+](\[O-])C(C)(C)C` [Example 38, N-(tert-Butyl)-C-[2-(methoxycarbonyl)-1H-indol-3-yl]nitrone] and `CC(C)(C)/[N+]([O-])=C/c1ccccc1-n1ccnc1` [Example 14, N-(tert-Butyl)-C-[2-(imidazol-1-yl)phenyl]nitrone] cannot be ordered by EC50: over 1000 µM for the first, over 1000 µM for the second.

Compared with `COC(=O)c1c(/C=[N+](\[O-])Cc2ccccc2)cc(OC)cc1OC` [Example 6, N-Benzyl-C-[2-(methoxycarbonyl)-3,5-dimethoxyphenyl]nitrone], `CC(C)(C)/[N+]([O-])=C/c1cccnc1N1CCOCC1` [Example 46, N-(tert-Butyl)-C-[2-(1-morpholino)pyridin-3-yl]nitrone] is higher in EC50: 100 to 500 µM for the first, over 1000 µM for the second. The first is the more potent here.

First: [O-]/[N+](=C\c1ccccc1N1CCN(c2ccc(C(F)(F)F)cn2)CC1)Cc1ccccc1 [Example 25, N-Benzyl-C-{2-[4-(5-(trifluoromethyl)pyridin-2-yl)piperazin-1-yl]phenyl}nitrone]
Second: [O-]/[N+](=C\c1ccccc1N1CCN(c2ccc(C(F)(F)F)cn2)CC1)C1CCCCC1 [Example 24, N-Cyclohexyl-C-{2-[4-(5-(trifluoromethyl)pyridin-2-yl)piperazin-1-yl]phenyl}nitrone]
The EC50 of the first is lower: under 10 µM for the first, 10 to 100 µM for the second.

`CC(C)(C)[N+]([O-])=Cc1ccccc1` [PBN, C-(phenyl)-N-(tert-butyl)nitrone, reference compound] and `[O-]/[N+](=C\c1ccccc1N1CCOCC1)Cc1ccccc1` [Example 22, N-Benzyl-C-[2-(1-morpholino)phenyl]nitrone] cannot be ordered by EC50: over 1000 µM for the first, over 1000 µM for the second.

First: CC(C)(C)/[N+]([O-])=C/c1ccccc1-n1cccn1 [Example 17, N-(tert-Butyl)-C-[2-(pyrazol-1-yl)phenyl]nitrone]
Second: [O-]/[N+](=C\c1ccccc1N1CCOCC1)C1CCCCC1 [Example 21, N-Cyclohexyl-C-[2-(1-morpholino)phenyl]nitrone]
The EC50 of the first is higher: over 1000 µM for the first, 100 to 500 µM for the second.

Compared with `O=[N+]([O-])c1ccc(Sc2ccccn2)c(/C=[N+](\[O-])C2CCCCC2)c1` [Example 37, N-Cyclohexyl-C-[5-nitro-2-(pyridin-2-ylthio)phenyl]nitrone], `CC(C)(C)C(=O)Nc1cccc(/C=[N+](\[O-])C2CCCCC2)n1` [Example 52, N-Cyclohexyl-C-[6-(2,2-dimethylpropanamido)pyridin-2-yl]nitrone] is higher in EC50: 10 to 100 µM for the first, 500 to 1000 µM for the second. The first is the more potent here.

First: [O-]/[N+](=C\c1ccccc1-n1cccn1)C1CCCCC1 [Example 18, N-Cyclohexyl-C-[2-(pyrazol-1-yl)phenyl]nitrone]
Second: O=C(O)c1ccccc1/C=[N+](\[O-])Cc1ccccc1 [Example 9, N-Benzyl-C-(2-carboxyphenyl)nitrone]
The EC50 of the first is higher: over 1000 µM for the first, 10 to 100 µM for the second.

`O=[N+]([O-])c1ccc(SC2CCCC2)c(/C=[N+](\[O-])C2CCCCC2)c1` [Example 30, N-Cyclohexyl-C-[2-(cyclopentylthio)-5-nitrophenyl]nitrone] and `[O-]/[N+](=C\c1cccnc1N1CCOCC1)C1CCCCC1` [Example 47, N-Cyclohexyl-C-[2-(1-morpholino)pyridin-3-yl]nitrone] cannot be ordered by EC50: over 1000 µM for the first, over 1000 µM for the second.

First: CC(C)(C)/[N+]([O-])=C/c1ccccc1C(=O)O [Example 7, N-(tert-Butyl)-C-(2-carboxyphenyl)nitrone]
Second: CC(C)(C)C(=O)Nc1cccc(/C=[N+](\[O-])Cc2ccccc2)n1 [Example 53, N-Benzyl-C-[6-(2,2-dimethylpropanamido)pyridin-2-yl]nitrone]
The EC50 of the first is higher: 100 to 500 µM for the first, 10 to 100 µM for the second.

First: CSc1nc2ccccc2cc1/C=[N+](\[O-])C(C)(C)C [Example 49, N-(tert-Butyl)-C-[2-(methylthio)quinolin-3-yl]nitrone]
Second: CC(C)(C)C(=O)Nc1cccc(/C=[N+](\[O-])C(C)(C)C)n1 [Example 51, N-(tert-Butyl)-C-[6-(2,2-dimethylpropanamido)pyridin-2-yl]nitrone]
The EC50 of the first is lower: 500 to 1000 µM for the first, over 1000 µM for the second. The first is the more potent here.

`[O-]/[N+](=C\c1ccccc1-n1ccnc1)C1CCCCC1` [Example 15, N-Cyclohexyl-C-[2-(imidazol-1-yl)phenyl]nitrone] and `CC(C)Sc1ccccc1/C=[N+](\[O-])C(C)(C)C` [Example 34, N-(tert-Butyl)-C-[2-(isopropylthio)phenyl]nitrone] cannot be ordered by EC50: over 1000 µM for the first, over 1000 µM for the second.

First: [O-]/[N+](=C\c1ccccc1-n1ccnc1)Cc1ccccc1 [Example 16, N-Benzyl-C-[2-(imidazol-1-yl)phenyl]nitrone]
Second: O=[N+]([O-])c1ccc(SC2CCCC2)c(/C=[N+](\[O-])Cc2ccccc2)c1 [Example 31, N-Benzyl-C-[2-(cyclopentylthio)-5-nitrophenyl]nitrone]
The EC50 of the first is higher: over 1000 µM for the first, 500 to 1000 µM for the second. The second is the more potent here.

`CSc1cc(C(F)(F)F)ccc1/C=[N+](\[O-])C(C)(C)C` [Example 35, N-(tert-Butyl)-C-[2-(methylthio)-4-(trifluoromethyl)phenyl]nitrone] and `[O-]/[N+](=C\c1cccnc1N1CCOCC1)Cc1ccccc1` [Example 48, N-Benzyl-C-[2-(1-morpholino)pyridin-3-yl]nitrone] cannot be ordered by EC50: over 1000 µM for the first, over 1000 µM for the second.

First: COc1cc(/C=[N+](\[O-])C(C)(C)C)c(C(=O)O)c(OC)c1 [Example 10, N-(tert-Butyl)-C-(2-carboxy-3,5-dimethoxyphenyl)nitrone]
Second: COc1cc(/C=[N+](\[O-])Cc2ccccc2)c(C(=O)O)c(OC)c1 [Example 12, N-Benzyl-C-(2-carboxy-3,5-dimethoxyphenyl)nitrone]
The EC50 of the first is higher: 500 to 1000 µM for the first, 10 to 100 µM for the second.

`[O-]/[N+](=C\c1ccccc1-n1cccn1)Cc1ccccc1` [Example 19, N-Benzyl-C-[2-(pyrazol-1-yl)phenyl]nitrone] and `CCSc1ccccc1/C=[N+](\[O-])C(C)(C)C` [Example 33, N-(tert-Butyl)-C-[2-(ethylthio)phenyl]nitrone] cannot be ordered by EC50: over 1000 µM for the first, over 1000 µM for the second.
